Results as given in PubChem BioAssay (NCI).
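How tested: cells in 96-well plates exposed to compound for 48 hours at five concentrations. TGI denotes the concentration required for complete inhibition of growth.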

Key:
Test in all cases: NCI anticancer screen, dose series, 48 h
786-0 renal = tested on: 786-0 renal
A498 renal = tested on: A498 renal
A549 NSCLC = tested on: A549 NSCLC
ACHN renal = tested on: ACHN renal
BT-549 breast = tested on: BT-549 breast
CAKI-1 renal = tested on: CAKI-1 renal
CCRF-CEM leukemia = tested on: CCRF-CEM leukemia
COLO 205 colon = tested on: COLO 205 colon
DU-145 prostate = tested on: DU-145 prostate
EKVX NSCLC = tested on: EKVX NSCLC
HCC-2998 colon = tested on: HCC-2998 colon
HCT-116 colon = tested on: HCT-116 colon
HCT-15 colon = tested on: HCT-15 colon
HOP-62 NSCLC = tested on: HOP-62 NSCLC
HS 578T breast = tested on: HS 578T breast
HT29 colon = tested on: HT29 colon
IGROV1 ovarian = tested on: IGROV1 ovarian
K-562 leukemia = tested on: K-562 leukemia
KM12 colon = tested on: KM12 colon
LOX IMVI melanoma = tested on: LOX IMVI melanoma
M14 melanoma = tested on: M14 melanoma
MALME-3M melanoma = tested on: MALME-3M melanoma
MCF7 breast = tested on: MCF7 breast
MDA-MB-231 breast = tested on: MDA-MB-231 breast
MDA-MB-435 = tested on: MDA-MB-435
MDA-N = tested on: MDA-N
MOLT-4 leukemia = tested on: MOLT-4 leukemia
NCI-H226 lung = tested on: NCI-H226 lung
NCI-H460 lung = tested on: NCI-H460 lung
NCI-H522 lung = tested on: NCI-H522 lung
NCI/ADR-RES ovarian = tested on: NCI/ADR-RES ovarian
OVCAR-3 ovarian = tested on: OVCAR-3 ovarian
OVCAR-4 ovarian = tested on: OVCAR-4 ovarian
OVCAR-5 ovarian = tested on: OVCAR-5 ovarian
OVCAR-8 ovarian = tested on: OVCAR-8 ovarian
PC-3 prostate = tested on: PC-3 prostate
RPMI-8226 leukemia = tested on: RPMI-8226 leukemia
RXF 393 renal = tested on: RXF 393 renal
SF-268 CNS = tested on: SF-268 CNS
SF-295 CNS = tested on: SF-295 CNS
SK-MEL-2 melanoma = tested on: SK-MEL-2 melanoma
SK-MEL-28 melanoma = tested on: SK-MEL-28 melanoma
SK-MEL-5 melanoma = tested on: SK-MEL-5 melanoma
SK-OV-3 ovarian = tested on: SK-OV-3 ovarian
SN12C renal = tested on: SN12C renal
SNB-19 CNS = tested on: SNB-19 CNS
SNB-75 CNS = tested on: SNB-75 CNS
SR leukemia = tested on: SR leukemia
SW-620 colon = tested on: SW-620 colon
T-47D breast = tested on: T-47D breast
TK-10 renal = tested on: TK-10 renal
U251 CNS = tested on: U251 CNS
UACC-257 melanoma = tested on: UACC-257 melanoma
UACC-62 melanoma = tested on: UACC-62 melanoma
UO-31 renal = tested on: UO-31 renal
NCI-H23 lung = tested on: NCI-H23 lung

Measured: TGI

CCc1n[nH]c(=O)n1-n1c(C)ccc1C
> 100 µM: 786-0 renal | A498 renal | A549 NSCLC | ACHN renal | BT-549 breast | CAKI-1 renal | CCRF-CEM leukemia | COLO 205 colon | DU-145 prostate | EKVX NSCLC | HCC-2998 colon | HCT-116 colon | HCT-15 colon | HOP-62 NSCLC | HS 578T breast | HT29 colon | IGROV1 ovarian | K-562 leukemia | KM12 colon | LOX IMVI melanoma | M14 melanoma | MALME-3M melanoma | MCF7 breast | MDA-MB-231 breast | MDA-MB-435 | MDA-N | MOLT-4 leukemia | NCI-H226 lung | NCI-H460 lung | NCI-H522 lung | NCI/ADR-RES ovarian | OVCAR-3 ovarian | OVCAR-4 ovarian | OVCAR-5 ovarian | OVCAR-8 ovarian | PC-3 prostate | RPMI-8226 leukemia | RXF 393 renal | SF-268 CNS | SF-295 CNS | SK-MEL-2 melanoma | SK-MEL-28 melanoma | SK-MEL-5 melanoma | SK-OV-3 ovarian | SN12C renal | SNB-19 CNS | SNB-75 CNS | SR leukemia | SW-620 colon | T-47D breast | TK-10 renal | U251 CNS | UACC-257 melanoma | UACC-62 melanoma | UO-31 renal

Cc1c(CN2CCOCC2)c(CN2CCOCC2)c(C)n1-c1ccc(Cl)cn1
> 100 µM: 786-0 renal | A498 renal | A549 NSCLC | ACHN renal | BT-549 breast | CAKI-1 renal | CCRF-CEM leukemia | COLO 205 colon | DU-145 prostate | EKVX NSCLC | HCC-2998 colon | HCT-116 colon | HCT-15 colon | HOP-62 NSCLC | HS 578T breast | HT29 colon | IGROV1 ovarian | K-562 leukemia | KM12 colon | M14 melanoma | MALME-3M melanoma | MCF7 breast | MDA-MB-231 breast | MDA-MB-435 | MDA-N | MOLT-4 leukemia | NCI-H226 lung | NCI-H23 lung | NCI-H460 lung | NCI-H522 lung | NCI/ADR-RES ovarian | OVCAR-3 ovarian | OVCAR-4 ovarian | OVCAR-5 ovarian | OVCAR-8 ovarian | PC-3 prostate | RPMI-8226 leukemia | RXF 393 renal | SF-268 CNS | SF-295 CNS | SK-MEL-2 melanoma | SK-MEL-28 melanoma | SK-MEL-5 melanoma | SK-OV-3 ovarian | SN12C renal | SNB-19 CNS | SNB-75 CNS | SR leukemia | SW-620 colon | T-47D breast | TK-10 renal | U251 CNS | UACC-257 melanoma | UACC-62 melanoma | UO-31 renal
